Source: publication PMC12984539 (European journal of pharmacology, 2024)

System: μ receptor
Assay: Hemi-equilibrium simulation of buprenorphine antagonism of DAMGO
Conditions: chosen to match the experimental DAMGO concentration-response curve

C[C@@H](NC(=O)[C@@H](N)Cc1ccc(O)cc1)C(=O)NCC(=O)N(C)[C@@H](Cc1ccccc1)C(=O)NCCO [DAMGO, [D-Ala^2, N-MePhe^4, Gly-ol]-enkephalin]
τ (efficacy of the agonist in the system): 2.3
